In patent US10577610B2, “EpCAM aptamers and conjugates thereof” (Deakin University, priority 2015, dated 2020):
Several values for one entry are separate records, joined by “and”; a condition that tells them apart may be missing. Equal values may be shown once. [invdT] = inverted (3'-3') thymidine; {TYE665} = TYE665 fluorescent dye

Key:
mouse TfR = molecular target: T1, mouse TfR (Mus musculus, UniProt Q62351); assay: Flow cytometry binding assay on bEnd.3 cells (TfR-positive); conditions: bEnd.3 (TfR-positive) cells, n=3
T1 construct: bEnd.3 cells, mouse cells positive for TfR; host or cells: bEnd.3 mouse cerebral endothelial cells
Description: In order to determine the binding affinity (equilibrium dissociation constant KD) of the aptamers. Binding assays were conducted to measure the binding to native EpCAM protein expressed on the cell surface. The aptamers were incubated with the cells at concentrations ranging from 0 nM to 400 nM. These were subsequently analysed by flow cytometry. Aptamers were thawed from storage (-20° C.) prior to use. These were then diluted via serial dilutions with phosphate buffered saline (PBS) in order to achieve the desired concentrations. PBS was supplemented with a MgCl2 concentration appropriate for the aptamer (1 mM for anti-TfR aptamers; 5 mM for conjugate aptamers). […] Concurrently, subcultured cells were incubated in blocking buffer (PBS with 10% FCS, 1 mg/mL BSA, 0.1 mg/mL tRNA) for 30 minutes. Following centrifugation, blocking buffer was removed and cells were resuspended in binding buffer (PBS with 10% FCS, 1 mg/mL BSA, 0.1 mg/mL tRNA). Cells (50 μL) were then incubated with the aptamers (50 μL) for 30 minutes at 37° C. at a range of concentrations (0 nM, 20 nM, 40 nM, 60 nM, 80 nM, 100 nM, 200 nM, 400 nM). Following this, cells were washed in 100 μL PBS three times before final resuspension for flow cytometry. Aptamers were incubated with the chosen cell lines (bEnd.3 cells, mouse cells positive for TfR; HEY cells, human ovarian cancer cell line positive for EpCAM; and MOLT4 human cells negative for both TfR and EpCAM) at a range of concentrations. Aptamer-bound cells were analysed using a FACS Canto II flow cytometer (Becton Dickinson), counting 10,000 events for each sample, in order to determine the binding affinity of the aptamers. […] The value for the auto fluorescent 0 nM concentration was subtracted from the other figures to account for background fluorescence (Li N et al (2009) Journal of Proteome Research 8(5):2438-48). […] The binding affinities of aptamers TfR1, TfR2, […] determined semi-quantitatively via flow cytometry, using bEnd.3 mouse cerebral endothelial cells as a Tf R-positive cell line and MOLT4 acute lymphoblastic leukaemia cells-which express the human TfR, but not the mouse TfR (Sutherland R et al (1981) PNAS 78(7):4515-9)-as a negative control. Three independent binding assays were performed for each aptamer against each cell line. […] Three independent binding assays were performed for these aptamer against all three cell lines (bEnd.3, HEY and MOLT4).

[1] = tested on: in vitro BBB model (bEnd.3 endothelial monolayer); assay: Aptamer permeability across in vitro blood brain barrier model (HEY-bEnd.3 co-culture); type: in vitro ADME, mouse; conditions: 2 μM in upper compartment, three hours
Description: In order to assess the ability of the TfR containing aptamers to pass through an endothelial cell monolayer via receptor mediated transport (RMT) an in vitro model of the BBB was produced as shown schematically in FIG. 1. Transwell inserts (polyethylene terephthalate (PET) with 0.4 μm diameter pores) within a 24-well plate (Corning) were incubated with 100 μL of 50% Collagen IV for 2 hours at 37° C. Flasks of bEnd.3 cells were trypsinised to generate a single-cell suspension, and counted using a haemocytometer and trypan blue to ensure that a sufficient proportion of cells were alive. These were then centrifuged and resuspended in media. Wells were filled with 800 μL of serum-free media and transwell inserts were placed on top. Cells were then seeded in 90 μL of serum-free media at a density of 1×10^6 cells/cm^2 and were allowed to incubate at 37° C. Cells were allowed to settle for 6 hours and then 60 μL of enhanced media (DMEM low glucose: Ham's F12 (1:1), (both serum-free) 550 nM hydrocortisone, 32 μM cAMP, 17.5 μM aminophylline, 1 μM retinoic acid, 5 μg/mL insulin, 2.75 μg/mL transferrin, 2.5 ng/mL sodium selenite, 100 ng/mL bFGF (basic fibroblast growth factor), 20 ng/mL EGF (epidermal growth factor)) (Wuest D M et al (2013) Journal of Neuroscience Methods 212(2):211-21) was added to the transwells. Media in both compartments were replaced the next day with enhanced media in order to supplement the growth of the monolayer.
HEY cells were subcultured and counted using a haemocytometer and trypan blue in order to assess the percentage of living cells. Subsequently, they were diluted in DMEM media at a concentration of 87 500 cells/mL. Media was removed from the bottom compartment of the in vitro BBB model and replaced with 800 μL of the HEY cell solution, seeding at 70 000 cells per well. These were allowed to incubate overnight. Next, media was removed from the upper compartment of the transwells and 100 μL of aptamer at a concentration of 2 μM was pipetted on top of the transwell membrane. […]

T1 sequence (Q62351 whole entry): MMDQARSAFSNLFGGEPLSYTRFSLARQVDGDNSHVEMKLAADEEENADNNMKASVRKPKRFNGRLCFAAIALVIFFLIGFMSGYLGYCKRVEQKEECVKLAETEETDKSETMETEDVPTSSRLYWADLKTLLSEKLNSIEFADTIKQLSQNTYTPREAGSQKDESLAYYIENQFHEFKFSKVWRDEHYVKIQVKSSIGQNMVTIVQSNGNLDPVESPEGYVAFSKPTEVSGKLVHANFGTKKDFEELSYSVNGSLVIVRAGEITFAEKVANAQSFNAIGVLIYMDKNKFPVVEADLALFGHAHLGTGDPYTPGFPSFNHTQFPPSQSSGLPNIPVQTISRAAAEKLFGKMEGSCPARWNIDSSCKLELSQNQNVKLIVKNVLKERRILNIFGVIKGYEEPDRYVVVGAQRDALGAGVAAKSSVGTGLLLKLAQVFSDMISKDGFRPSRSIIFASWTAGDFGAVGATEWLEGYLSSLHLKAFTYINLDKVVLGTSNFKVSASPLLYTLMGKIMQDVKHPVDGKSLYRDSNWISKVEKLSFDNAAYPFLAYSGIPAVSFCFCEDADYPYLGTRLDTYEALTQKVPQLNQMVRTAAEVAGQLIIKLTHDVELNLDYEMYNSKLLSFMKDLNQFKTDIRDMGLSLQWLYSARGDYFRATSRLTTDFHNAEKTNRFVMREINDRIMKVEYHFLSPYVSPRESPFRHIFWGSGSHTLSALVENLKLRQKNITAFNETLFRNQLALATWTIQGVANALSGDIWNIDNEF

Row | Substance | Kd (mouse TfR) | Internalisation into HEY cells in bottom compartment after incubation on in vitro BBB model [1]
1 | TfR3: version of TfR1 with scrambled binding loop sequence, SEQ ID NO:6 (DNA GCGTGGTACCACGC; DNA, 5' {TYE665}, 3' [invdT], backbone not given here) | 366 nM | 
2 | 5′-GCGCGGTACCGCGCTAACGGAGGTTGCGTCCGT-3′ (GCGCGGTACCGCGCTAACGGAGGTTGCGTCCGN; listed as DNA, chemistry not given here) [Bi3] | 342 ± 78.3 nM | observed to become internalised into the HEY cells
3 | 5′-GCGCGGGCCCGCGCTAACGGAGGTTGCGTCCGT-3′ (GCGCGGGCCCGCGCTAACGGAGGTTGCGTCCGN; DNA sequence of aptamer conjugate Bi2; (33)..(33) n is t or 3′ inverted deoxythymidine (dT)) | 306 nM and 305 nM | observed to become internalised into the HEY cells
4 | Bi1: aptamer conjugate based on TfR1 and scrambled EpCAM binding loop, negative control, SEQ ID NO:8 (GCGCGTGCACGCGCTAACGGATTCCTTTTCCGN; listed as DNA, further chemistry not given here) | 1690 ± 1840 nM | not observed inside HEY cells
